Where only a bound is given, the exact number is not on record here.

The assay relates to human monocyte stimulated cytokine production (TNF-α). Briefly: Monocyte Assay (LPS-stimulated TNF-α production). In kind it is cell-based. Particulars: human CD14+ monocytes, 200 ng/mL LPS, 24 hrs, TNF-α by ELISA. The procedure: Effect of IKK-β inhibition on human monocyte stimulated cytokine production was assessed as follows: Monocytes were isolated from heparinized whole blood by Ficoll gradient, followed by purification of CD14+ cells using MACS magnetic cell separation beads. Isolated monocytes were then adhered to 96-well culture plates at 1×10^6 cells/mL in RPMI 1640 10% FBS (JRH Biosciences, Lenexa Kans.) for 2 h. to further enrich the monocyte population. The media was then removed, cells washed once with RPMI 1640, and 0.125 mL RPMI 1640 10% FBS was added to the wells. Test compounds are added to the wells 30 minutes prior to stimulation with a final vehicle concentration of 0.1% DMSO. Monocytes were activated by the addition of 200 ng/mL endotoxin (LPS; E. coli serotype 026:B6) (Sigma, St. Louis, Mo.) and incubated for 24 hrs at 37 C. Cell-free supernates were analyzed by ELISA for TNF-α using Pharmingen matched pair Abs. Viability of the cells was determined by10% trypan blue exclusion.
In general terms: ELISA stands for enzyme-linked immunosorbent assay.
Consider `NC(=O)c1cc(-c2ccccc2)cc2c(C3CCN(S(=O)(=O)c4ccc(CNCc5ccccc5)s4)CC3)c[nH]c12` [Example 271, 5-phenyl-3-{1-[(5-{[(phenylmethyl)amino]methyl}-2-thienyl)sulfonyl]-4-piperidinyl}-1H-indole-7-carboxamide], for which the IC50 is < 10 µM. Then `C[C@@H]1CC[C@@H](C)N1CCCS(=O)(=O)N1CCC(c2c[nH]c3c(C(N)=O)cc(-c4ccccc4)cc23)CC1` [Example 69, 3-[1-({3-[(2R,5R)-2,5-dimethyl-1-pyrrolidinyl]propyl}sulfonyl)-4-piperidinyl]-5-phenyl-1H-indole-7-carboxamide], with < 10 µM. Then `CN(C)CCCS(=O)(=O)N1CCC(c2c[nH]c3c(C(N)=O)cc(-c4cccs4)cc23)CC1` [Example 10, 3-(1-{[3-(dimethylamino)propyl]sulfonyl}-4-piperidinyl)-5-(2-thienyl)-1 indole-7-carboxamide], with < 10 µM. Then `CN(C)CCS(=O)(=O)N1CCC(c2c[nH]c3c(C(N)=O)cc(-c4ccccc4)cc23)CC1` [Example 2, 3-(1-{[2-(dimethylamino)ethyl]sulfonyl}-4-piperidinyl)-5-phenyl-1H-indole-7-carboxamide], with < 10 µM; and `COCCCS(=O)(=O)N1CCC(c2c[nH]c3c(C(N)=O)cc(-c4cccs4)cc23)CC1` [Example 262, 3-(1-{[3-(methyloxy)propyl]sulfonyl}-4-piperidinyl)-5-(2-thienyl)-1H-indole-7-carboxamide], with < 10 µM. Take `Cn1cnc(S(=O)(=O)N2CCC(c3c[nH]c4c(C(N)=O)cc(-c5ccccc5)cc34)CC2)c1` [Example 267, 3-{1-[(1-methyl-1H-imidazol-4-yl)sulfonyl]-4-piperidinyl}-5-phenyl-1H-indole-7-carboxamide]: the half-maximal inhibitory concentration (IC50) is < 10 µM. Then `CN1CCN(CCCS(=O)(=O)N2CCC(c3c[nH]c4c(C(N)=O)cc(-c5ccsc5)cc34)CC2)CC1` [Example 72, 3-(1-{[3-(4-methyl-1-piperazinyl)propyl]sulfonyl}-4-piperidinyl)-5-(3-thienyl)-1H-indole-7-carboxamide], with < 10 µM; and `COCCS(=O)(=O)N1CCC(c2c[nH]c3c(C(N)=O)cc(-c4ccccc4)cc23)CC1` [Example 68, 3-(1-{[2-(methyloxy)ethyl]sulfonyl}-4-piperidinyl)-5-phenyl-1 indole-7-carboxamide], with < 10 µM. Then `CCNCc1cccc(-c2cc(C(N)=O)c3[nH]cc(C4CCN(S(=O)(=O)CCCN(C)C)CC4)c3c2)c1` [Example 96, 3-(1-{[3-(dimethylamino)propyl]sulfonyl}-4-piperidinyl)-5-{3-[(ethylamino)methyl]phenyl}-1H-indole-7-carboxamide], with < 10 µM; and `NC(=O)c1cc(-c2cccs2)cc2c(C3CCN(S(=O)(=O)CCNC4CCCC4)CC3)c[nH]c12` [Example 15, 3-(1-{[2-(cyclopentylamino)ethyl]sulfonyl}-4-piperidinyl)-5-(2-thienyl)-1H-indole-7-carboxamide], with < 10 µM. The figure for `CC1CCCN1CCCS(=O)(=O)N1CCC(c2c[nH]c3c(C(N)=O)cc(-c4cccs4)cc23)CC1` (stereo not shown) [Example 12, 3-(1-{[3-(2-methyl-1-pyrrolidinyl)propyl]sulfonyl}-4-piperidinyl)-5-(2-thienyl)-11 indole-7-carboxamide] is < 10 µM. Regarding `CONCCS(=O)(=O)N1CCC(c2c[nH]c3c(C(N)=O)cc(-c4ccccc4)cc23)CC1` [Example 215, 3-[1-({2-[(methyloxy)amino]ethyl}sulfonyl)-4-piperidinyl]-5-phenyl-1H-indole-7-carboxamide], the IC50 is < 10 µM. Then `Cc1nc(S(=O)(=O)N2CCC(c3c[nH]c4c(C(N)=O)cc(-c5ccccc5)cc34)CC2)cn1C` [Example 275, 3-{1-[(1,2-dimethyl-1H-imidazol-4-yl)sulfonyl]-4-piperidinyl}-5-phenyl-1H-indole-7-carboxamide], with < 10 µM. The figure for `CN(C)CCCS(=O)(=O)N1CCC(c2c[nH]c3c(C(N)=O)cc(-c4cccc(CO)c4)cc23)CC1` [Example 76, 3-(1-{[3-(dimethylamino)propyl]sulfonyl}-4-piperidinyl)-5-[3-(hydroxymethyl)phenyl]-1H-indole-7-carboxamide] is < 10 µM; for `NC(=O)c1cc(-c2ccc(CO)s2)cc2c(C3CCN(S(=O)(=O)CCCN4CCCC4)CC3)c[nH]c12` [Example 63, 5-[5-(hydroxymethyl)-2-thienyl]-3-(1-{[3-(1-pyrrolidinyl)propyl]sulfonyl}-4-piperidinyl)-1H-indole-7-carboxamide] it is < 10 µM; for `NC(=O)c1cc(-c2ccc(CN3CCCC3)s2)cc2c(C3CCN(S(=O)(=O)CCCN4CCCC4)CC3)c[nH]c12` [Example 64, 5-[5-(1-pyrrolidinylmethyl)-2-thienyl]-3-(1-{[3-(1-pyrrolidinyl)propyl]sulfonyl}-4-piperidinyl)-1H-indole-7-carboxamide] it is < 10 µM. The figure for `NC(=O)c1cc(-c2ccccc2)cc2c(C3CCN(S(=O)(=O)CCCO)CC3)c[nH]c12` [Example 174, 3-{1-[(3-hydroxypropyl)sulfonyl]-4-piperidinyl}-5-phenyl-1H-indole-7-carboxamide] is < 10 µM; for `NC(=O)c1cc(-c2cccc(CO)c2)cc2c(C3CCN(S(=O)(=O)CCCN4CCCC4)CC3)c[nH]c12` [Example 83, 5-[3-(hydroxymethyl)phenyl]-3-(1-{[3-(1-pyrrolidinyl)propyl]sulfonyl}-4-piperidinyl)-1H-indole-7-carboxamide] it is < 10 µM; for `NCCS(=O)(=O)N1CCC(c2c[nH]c3c(C(N)=O)cc(-c4ccccc4)cc23)CC1` [Example 1, 3-{1-[(2-aminoethyl)sulfonyl]-4-piperidinyl}-5-phenyl-1H-indole-7-carboxamide] it is < 10 µM. As to `NC(=O)c1cc(-c2ccccc2)cc2c(C3CCN(S(=O)(=O)CCCN4CCCCC4)CC3)c[nH]c12` [Example 5, 5-phenyl-3-(1-{[3-(1-piperidinyl)propyl]sulfonyl}-4-piperidinyl)-1H-indole-7-carboxamide], the IC50 was < 10 µM. As for `NC(=O)c1cc(-c2ccccc2)cc2c(C3CCN(S(=O)(=O)c4ccc5nonc5c4Cl)CC3)c[nH]c12` [Example 274, 3-{1-[(4-chloro-2,1,3-benzoxadiazol-5-yl)sulfonyl]-4-piperidinyl}-5-phenyl-1H-indole-7-carboxamide], the half-inhibitory concentration (IC50) was < 10 µM. The figure for `CCOCCCS(=O)(=O)N1CCC(c2c[nH]c3c(C(N)=O)cc(-c4cccs4)cc23)CC1` [Example 264, 3-(1-{[3-(ethyloxy)propyl]sulfonyl}-4-piperidinyl)-5-(2-thienyl)-1H-indole-7-carboxamide] is < 10 µM; for `NC(=O)c1cc(-c2cccs2)cc2c(C3CCN(S(=O)(=O)CCCNC4CCCC4)CC3)c[nH]c12` [Example 13, 3-(1-{[3-(cyclopentylamino)propyl]sulfonyl}-4-piperidinyl)-5-(2-thienyl)-1H-indole-7-carboxamide] it is < 10 µM; for `NC(=O)c1cc(-c2cccs2)cc2c(C3CCN(S(=O)(=O)CCCO)CC3)c[nH]c12` [Example 265, 3-{1-[(3-hydroxypropyl)sulfonyl]-4-piperidinyl}-5-(2-thienyl)-1H-indole-7-carboxamide] it is < 10 µM.

`CNCCS(=O)(=O)N1CCC(c2c[nH]c3c(C(N)=O)cc(-c4ccccc4)cc23)CC1` [Example 22, 3-(1-{[2-(methylamino)ethyl]sulfonyl}-4-piperidinyl)-5-phenyl-1H-indole-7-carboxamide]: the IC50 was < 10 µM. Then `CC(C)(C)OC(=O)N1CCC(NCCCS(=O)(=O)N2CCC(c3c[nH]c4c(C(N)=O)cc(-c5ccccc5)cc34)CC2)CC1` [Example 108, 1,1-dimethylethyl 4-{[3-({4-[7-(aminocarbonyl)-5-phenyl-1H-indol-3-yl]-1-piperidinyl}sulfonyl)propyl]amino}-1-piperidinecarboxylate], with < 10 µM; and `Cc1ncc(S(=O)(=O)N2CCC(c3c[nH]c4c(C(N)=O)cc(-c5ccccc5)cc34)CC2)n1C` [Example 279, 3-{1-[(1,2-dimethyl-1H-imidazol-5-yl)sulfonyl]-4-piperidinyl}-5-phenyl-1H-indole-7-carboxamide], with < 10 µM; and `NC(=O)c1cc(-c2ccccc2)cc2c(C3CCN(S(=O)(=O)CCCOCC4CC4)CC3)c[nH]c12` [Example 164, 3-[1-({3-[(cyclopropylmethyl)oxy]propyl}sulfonyl)-4-piperidinyl]-5-phenyl-1H-indole-7-carboxamide], with < 10 µM. For the compound `CNCc1ccc(-c2cc(C(N)=O)c3[nH]cc(C4CCN(S(=O)(=O)CCCN5CCOCC5)CC4)c3c2)s1` [Example 65, 5-{5-[(methylamino)methyl]-2-thienyl}-3-(1-{[3-(4-morpholinyl)propyl]sulfonyl}-4-piperidinyl)-1H-indole-7-carboxamide], the 50% inhibitory concentration (IC50) is < 10 µM.

For the compound `CCOCCS(=O)(=O)N1CCC(c2c[nH]c3c(C(N)=O)cc(-c4ccccc4)cc23)CC1` [Example 175, 3-(1-{[2-(ethyloxy)ethyl]sulfonyl}-4-piperidinyl)-5-phenyl-1H-indole-7-carboxamide], the IC50 was < 10 µM.

Regarding `COCCCS(=O)(=O)N1CCC(c2c[nH]c3c(C(N)=O)cc(-c4ccccc4)cc23)CC1` [Example 160, 3-(1-{[3-(methyloxy)propyl]sulfonyl}-4-piperidinyl)-5-phenyl-1H-indole-7-carboxamide], the IC50 is < 10 µM.

Broadly, the IC50 is the concentration at which inhibition is half-maximal. Low values mean higher potency, high ones lower potency.

Values taken from patent publication US7858796B2, “Chemical compounds” (Glaxo Group Limited, priority 2004, dated 2010).
